Calls of active or inactive are those of the source. The rule behind the calls is not given here.
How the values were obtained:
[1] = target: T1, Dual specificity protein kinase TTK (Homo sapiens) (UniProt P33981); test: Binding affinity to human hexa-His tagged MPS1 (515 to 795 residue) expressed in Escherichia coli BL2I-DE3 cells assessed as change in melting temperature by thermal shift assay
T1 sequence (whole entry): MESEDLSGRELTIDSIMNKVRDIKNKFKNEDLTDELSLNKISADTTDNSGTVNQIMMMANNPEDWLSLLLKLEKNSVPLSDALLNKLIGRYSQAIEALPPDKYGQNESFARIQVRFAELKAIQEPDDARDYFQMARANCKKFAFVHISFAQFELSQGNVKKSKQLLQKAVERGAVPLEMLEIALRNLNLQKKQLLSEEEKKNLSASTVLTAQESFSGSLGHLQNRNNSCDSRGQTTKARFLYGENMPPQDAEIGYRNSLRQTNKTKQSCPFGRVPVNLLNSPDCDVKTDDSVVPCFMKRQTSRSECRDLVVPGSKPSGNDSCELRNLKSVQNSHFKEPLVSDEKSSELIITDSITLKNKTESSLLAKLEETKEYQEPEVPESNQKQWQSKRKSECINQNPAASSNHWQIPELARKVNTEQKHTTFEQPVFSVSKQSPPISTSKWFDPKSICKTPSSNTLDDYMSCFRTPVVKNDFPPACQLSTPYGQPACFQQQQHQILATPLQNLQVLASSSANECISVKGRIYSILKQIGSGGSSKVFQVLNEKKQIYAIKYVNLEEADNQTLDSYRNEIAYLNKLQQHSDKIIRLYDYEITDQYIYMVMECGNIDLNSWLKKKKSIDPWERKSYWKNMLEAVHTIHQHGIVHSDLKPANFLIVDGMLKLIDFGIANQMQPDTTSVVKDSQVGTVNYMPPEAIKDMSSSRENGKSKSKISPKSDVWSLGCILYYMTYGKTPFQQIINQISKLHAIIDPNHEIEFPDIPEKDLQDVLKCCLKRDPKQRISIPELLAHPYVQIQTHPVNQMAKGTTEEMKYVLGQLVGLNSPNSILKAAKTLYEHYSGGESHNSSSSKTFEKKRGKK

MDA-MB-231 [2] = test: Growth inhibition of human MDA-MB-231 cells measured after 5 days by CellTiter-Glo assay; assay type: functional; conditions: time 5 day; for GI50: Homo sapiens, MDA-MB-231, 120 h
[3] = AUC in ICR mouse at 10 mg/kg, po; assay type: ADME, organism-based; design: dose 10 mg/kg; conditions: in vivo
[4] = Half life in ICR mouse at 10 mg/kg, po; assay type: ADME, organism-based; conditions: in vivo
[5] = Cmax in ICR mouse at 10 mg/kg, po; assay type: ADME, organism-based; design: route oral, dose 10 mg/kg; conditions: in vivo
[6] = Metabolic stability in human liver microsomes assessed as compound remaining after 30 mins; assay type: ADME, Microsome; conditions: read-out: Stability
[7] = Oral bioavailability in ICR mouse at 10 mg/kg; assay type: ADME, organism-based; conditions: in vivo
[8] = target: T2, Dual specificity protein kinase TTK (Homo sapiens, UniProt P33981); test: Inhibition of human hexa-His tagged MPS1 (515 to 795 residue) expressed in Escherichia coli BL2I-DE3 cells incubated for 4 hrs in presence of ATP by ADP-glo luminescence assay
T2 sequence (P33981 whole entry): T1 sequence (whole entry)

[9] = target: T1, Dual specificity protein kinase TTK (Homo sapiens); test: Inhibition of human […] assessed as reduction in histone H3 phosphorylation at 0.1 to 10 uM by Western blot analysis; conditions: dose 0.1-10 µM
[10] = target: T1, Dual specificity protein kinase TTK (Homo sapiens); test: Inhibition of human […] assessed as reduction in MPS1 autophosphorylation at 0.1 to 10 uM by Western blot analysis; conditions: dose 0.1-10 µM
[11] = Toxicity in athymic mouse xenografted with human MDA-MB-231 cells assessed as body weight gain at 2 mg/kg administered daily and measured twice a week (reference value: 15.5 %); assay type: organism-based; conditions: in vivo
[12] = Toxicity in athymic mouse xenografted with human MDA-MB-231 cells assessed as change in intestine morphology at 2 mg/kg administered daily and measured twice a week; assay type: organism-based; conditions: in vivo
MDA-MB-231 [13] = test: Antitumor activity against human MDA-MB-231 cells xenografted in athymic mouse model assessed as tumor growth inhibition at 2 mg/kg administered daily and measured twice a week; assay type: functional; conditions: read-out: TGI
[14] = Toxicity in athymic mouse xenografted with human MDA-MB-231 cells assessed as effect on body weight at 2 mg/kg administered daily and measured twice a week; assay type: organism-based; conditions: in vivo

SMILES | ΔTm [1] | GI50 (MDA-MB-231 [2]) | GI90 (MDA-MB-231 [2]) | further results
CCCCNc1nc(Nc2ccc(N3CCCC3=O)cc2OC)nc2[nH]cc(C#N)c12 | 11.2 °C | 18 nM | 267 nM | –
COc1cc(C(=O)N2CCOCC2)ccc1Nc1nc(NC2CCCCC2)c2c(C#N)c[nH]c2n1 | 16.1 °C | 3 nM | 43 nM | AUC [3]: 3770 ng·h/mL; half-life [4]: 2.6 h; Cmax [5]: 995 ng/mL; remaining at 0.5 h [6]: 56%; bioavailability [7]: 98%; IC50 [8]: 3.2 nM
N#Cc1c[nH]c2nc(Nc3ccc(N4CCCC4=O)cc3)nc(NC3CCCCC3)c12 | 17.2 °C | 46 nM | 67 nM | –
COc1cc(N2CCCC2=O)ccc1Nc1nc(NC2CCCCC2)c2c(C#N)c[nH]c2n1 | 18.3 °C | 11 nM | 37 nM | AUC [3]: 6150 ng·h/mL; inhibition [9]: Active; half-life [4]: 1.1 h; Cmax [5]: 2220 ng/mL; inhibition [10]: Active; remaining at 0.5 h [6]: 60%; Activity [11]: 7.6%; bioavailability [7]: 61%; IC50 [8]: 6.4 nM; Activity [12]: Non-Toxic; inhibition in vivo at 2 mg/kg (MDA-MB-231 [13]): 57%; Activity [14]: Non-Toxic
COc1cc(N2CCCC2=O)ccc1Nc1nc(NC(C)C)c2c(C#N)c[nH]c2n1 | 14.2 °C | 10 nM | 481 nM | –
COc1cc(N2CCOCC2=O)ccc1Nc1nc(NC2CCCCC2)c2c(C#N)c[nH]c2n1 | 17.2 °C | 10 nM | >1000 nM | –
COCC(C)(C)Nc1nc(Nc2ccc(N3CCCC3=O)cc2OC)nc2[nH]cc(C#N)c12 | 15.1 °C | 916 nM | >1000 nM | –
COc1cc(N2CCCC2=O)ccc1Nc1nc(NCC2CCC2)c2c(C#N)c[nH]c2n1 | 15.2 °C | > 1000 nM | >1000 nM | –
CC[C@H](C)Nc1nc(Nc2ccc(N3CCCC3=O)cc2OC)nc2[nH]cc(C#N)c12 | 15.1 °C | 96 nM | 328 nM | –
COc1cc(N2CCCC2=O)ccc1Nc1nc(NCC(C)(C)C)c2c(C#N)c[nH]c2n1 | 14.4 °C | 149 nM | >1000 nM | –
COc1cc(N2CCCC2=O)ccc1Nc1nc(NC2CCCCC2)c2c(C(F)(F)F)c[nH]c2n1 | 15.1 °C | 327 nM | >1000 nM | –
Cn1cc(Nc2nc(NC3CCCCC3)c3c(C#N)c[nH]c3n2)cn1 | 15.2 °C | 109 nM | >1000 nM | –
Cc1cc(N2CCOCC2)ccc1Nc1nc(NC2CCCCC2)c2c(C(F)(F)F)c[nH]c2n1 | 17.2 °C | > 1000 nM | >1000 nM | –
COc1cc(N2CCCC2=O)ccc1Nc1nc(NC2CCC2)c2c(C#N)c[nH]c2n1 | 14.3 °C | > 1000 nM | >1000 nM | –
N#Cc1c[nH]c2nc(Nc3ccc(N4CCCC4=O)cn3)nc(NC3CCCCC3)c12 | 13.8 °C | 364 nM | 668 nM | –
CNc1nc(Nc2ccc(N3CCCC3=O)cc2OC)nc2[nH]cc(C#N)c12 | 7.3 °C | 637 nM | >1000 nM | –
COc1cc(N2CCCC2=O)ccc1Nc1nc(NCC(C)C)c2c(C#N)c[nH]c2n1 | 13.8 °C | 20 nM | 122 nM | –
COc1cc(N2CCCC2=O)ccc1Nc1nc(NCC2CCCC2)c2c(C#N)c[nH]c2n1 | 15.2 °C | 171 nM | >1000 nM | –
COc1cc(N2CCCC2=O)ccc1Nc1nc(NC2CCCCC2)c2cc[nH]c2n1 | 15.3 °C | 55 nM | 380 nM | –
CCOc1cc(N2CCCC2=O)ccc1Nc1nc(NC2CCCCC2)c2c(C#N)c[nH]c2n1 | 16.9 °C | 108 nM | 478 nM | –
COc1cc(N2CCCC2=O)ccc1Nc1nc(NC2CCCC2)c2c(C#N)c[nH]c2n1 | 17.1 °C | 25 nM | 383 nM | –
Cc1cc(N2CCOCC2)ccc1Nc1nc(NC2CCCCC2)c2c(Cl)c[nH]c2n1 | 18.1 °C | 129 nM | >1000 nM | –
COc1cc(N2CCCC2=O)ccc1Nc1nc(NC2CCOCC2)c2c(C#N)c[nH]c2n1 | 14.8 °C | > 1000 nM | >1000 nM | –
Cc1cc(N2CCOCC2)ccc1Nc1nc(NC2CCCCC2)c2c(C#N)c[nH]c2n1 | 19.9 °C | 17 nM | 313 nM | AUC [3]: 1270 ng·h/mL; half-life [4]: 1.2 h; Cmax [5]: 749 ng/mL; remaining at 0.5 h [6]: 57%; bioavailability [7]: 44%; IC50 [8]: 6.3 nM
